Laboratory results as given in ChEMBL document CHEMBL1129337, “Aristeromycin-5'-carboxaldehyde: a potent inhibitor of S-adenosyl-L-homocysteine hydrolase” (J Med Chem, 1996).
pKi: −log10 of the molar value.

Columns and labels:
Adenosylhomocysteinase [1] = molecular target: T1, Adenosylhomocysteinase (Homo sapiens, UniProt P23526); assay: Binding affinity towards purified recombinant human placental S-adenosyl-L-homocysteine hydrolase
Target sequence in this assay (P23526 whole entry): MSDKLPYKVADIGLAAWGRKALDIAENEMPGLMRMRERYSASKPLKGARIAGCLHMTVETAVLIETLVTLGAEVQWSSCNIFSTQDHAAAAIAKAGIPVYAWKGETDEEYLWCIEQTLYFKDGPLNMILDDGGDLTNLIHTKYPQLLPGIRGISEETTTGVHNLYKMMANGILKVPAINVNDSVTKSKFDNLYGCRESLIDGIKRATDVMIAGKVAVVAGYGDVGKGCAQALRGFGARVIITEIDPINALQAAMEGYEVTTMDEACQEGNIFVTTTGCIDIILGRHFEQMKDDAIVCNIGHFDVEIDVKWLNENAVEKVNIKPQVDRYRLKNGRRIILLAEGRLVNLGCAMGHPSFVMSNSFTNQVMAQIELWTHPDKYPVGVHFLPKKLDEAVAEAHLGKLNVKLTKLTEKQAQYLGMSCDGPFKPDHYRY

Adenosylhomocysteinase [2] = molecular target: T1, Adenosylhomocysteinase
Target sequence in this assay (P23526 2-432 limits assumed): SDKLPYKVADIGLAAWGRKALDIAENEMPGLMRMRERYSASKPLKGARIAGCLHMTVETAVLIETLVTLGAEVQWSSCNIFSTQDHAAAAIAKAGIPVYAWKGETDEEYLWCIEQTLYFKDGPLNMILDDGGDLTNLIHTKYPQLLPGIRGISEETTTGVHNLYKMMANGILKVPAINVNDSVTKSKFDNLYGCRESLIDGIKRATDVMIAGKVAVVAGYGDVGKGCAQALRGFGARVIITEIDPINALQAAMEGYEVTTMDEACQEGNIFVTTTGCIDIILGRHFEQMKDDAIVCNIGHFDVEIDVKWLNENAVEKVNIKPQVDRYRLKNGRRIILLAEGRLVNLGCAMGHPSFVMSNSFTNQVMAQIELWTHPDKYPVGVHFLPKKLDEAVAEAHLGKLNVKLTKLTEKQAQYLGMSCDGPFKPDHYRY
Description: Apparent inactivation rate constant (k2) for S-adenosyl-L-homocysteine hydrolase

Structure (SMILES) | pKi (Adenosylhomocysteinase [1]) | k2 (Adenosylhomocysteinase [2]) [min⁻¹]
Nc1ncnc2c1ncn2[C@@H]1O[C@H](C=O)[C@@H](O)[C@H]1O | 7.37 | 0.22
Nc1ncnc2c1ncn2[C@@H]1C[C@@H](C=O)[C@@H](O)[C@H]1O | 6.56 | 1.2
Nc1ncnc2c1ncn2[C@@H]1C[C@H](C=O)[C@@H](O)[C@H]1O | 5.35 | 0.37
Nc1ncnc2c1ncn2[C@@H]1O[C@@H](C=O)[C@@H](O)[C@H]1O | 7.41 | 0.65
